Where two headings read alike, the source gives them in different places.
Assays:
[1] = Chemical stability in solution and on storage; format: physicochemical
Procedure: FIG. 5 depicts the synthesis of m2^7,2′-OGppSepG. The selenophosphate (PSeO3^−3) was prepared by a modification of the method described in R. Glass et al., “Selenophosphate,” Meth. Enzymol., vol. 252, pp. 309-315 (1995). Trimethylsilyl phosphite was treated with selenium in pyridine to give trimethylsilyl selenophosphate, which was then desilylated by methanol in the presence of triethylamine to give the selenophosphate triethylammonium salt. This compound was coupled with the imidazolide derivative of 7,2′-O-dimethylguanosine 5′-monophosphate (m2^7,2′-OGMP-Im) to give 7,2′-O-dimethylguanosine 5′-O-(2-selenodiphosphate) (m2^7,2′-OGDPβSe). […] The reaction was very rapid; essentially 100% conversion of m2^7,2′-OGMP-Im into m2^7,2′-OGDPβSe was observed by RP HPLC after 15 min. […] Thus, care was taken to maintain the pH at 7 or above during purification of m2^7,2′-OGDPβSe, which allowed the product to be isolated with 80% yield after ion-exchange chromatography. The m2^7,2′-OGDPβSe was then coupled with the imidazolide derivative of GMP in the presence of excess ZnCl2. Two peaks were observed by RP HPLC, corresponding to two m2^7,2′-OGppSepG diastereomers, which were designated D1 and D2 according to their elution order. However, the coupling proceeded slowly, and complete disappearance of m2^7,2′-OGDPβSe took about two days. The extended reaction time allowed partial hydrolysis of m2^7,2′-OGDPβSe to m2^7,2′-OGMP, and only a moderate reaction yield (40% conversion by HPLC, 25% isolated). The diastereomeric mixture of m2^7,2′-OGppSepG after isolation by ion-exchange chromatography was successfully resolved into pure diastereomers by RP HPLC. The products were characterized by mass spectrometry, ^1H NMR, and ^31P NMR to confirm structures and homogeneity.

[2] = target: cap-dependent translation of luciferase mRNA in reticulocyte lysate; assay: Inhibition of cap-dependent translation in vitro by free cap analogs; format: biochemical, rabbit
Procedure: In vitro translation reactions were performed in 12.5 μl for 60 min at 30° C. under conditions favorable for cap-dependent translation. In some cases, the reaction mixture was incubated for 60 min at 30° C. prior to adding the dinucleotide cap analog (inhibitor) and m2^7,3′-OGppG-capped luciferase mRNA to start translation. In other cases, to analyze biological stability, the cap analog was incubated in the translation mixture for 60 min at 30° C. prior to adding the luciferase mRNA to start translation. A typical reaction mixture contained 56% reticulocyte lysate, the 20 “standard” amino acids (0.01 mM each), MgCl2 (1.2 mM), potassium acetate (170 mM), RiboLock Ribonuclease Inhibitor (0.32 U/μl), cap analog solution ( 1/10 of total reaction volume), and m2^7,3′-OGpppG-capped luciferase RNA. […] Reactions were performed with cap analog concentrations ranging from 0.12 to 100 μM. Luciferase activity was measured in a luminometer. […] The program OriginPro8 (OriginLab) was used for curve fitting with the equation qLUC=Z/(1+I/IC50)+N, where qLUC is the activity of luciferase synthesized in the presence of cap analog, Z is the activity of luciferase synthesized in the absence of cap analog, N is the activity of luciferase synthesized in a cap-independent manner, and I is the cap analog concentration.
Two type of experiments were carried out. In one set of experiments (condition A), a cap analog was added to the translation system together with luciferase mRNA. In the other set of experiments (condition B), the cap analog was incubated in the translation system for 60 min before addition of mRNA. […] There was a correlation between the resistance to hydrolysis by DcpS and the stability of analogs in the translation system.

[3] = system: rabbit reticulocyte lysate system; assay: In vitro translation efficiency of capped luciferase mRNA, method I transcripts; format: biochemical; details: for Translation efficiency in comparison with m^7GpppG-LUC mRNA, Experiment No. 2: experiment 2; for Translation efficiency in comparison with m^7GpppG-LUC mRNA, Experiment No. 3: experiment 3; for Translation efficiency in comparison with m^7GpppG-LUC mRNA, Experiment No. 4: experiment 4; for Translation efficiency in comparison with m^7GpppG-LUC mRNA, Mean: mean of experiments; for In vitro translational efficiency, method I: relative to m^7GpppG-capped luciferase mRNA = 1.0
Procedure: A DNA template for in vitro transcription was synthesized by PCR from the plasmid SP6p-5′UTR β-globin-LUCiferase. The template contained the SP6 promoter followed by the 5′-UTR sequence of rabbit β-globin mRNA and the entire firefly luciferase mRNA coding region. A typical in vitro transcription reaction mixture (50 μl) contained SP6 transcription buffer (Fermentas, cat. no. EP0131), 2 μg of DNA template, 2 U/μl RiboLock Ribonuclease Inhibitor (Fermentas), 2 mM each of ATP, CTP, and UTP, 0.1 mM GTP, and 1 mM dinucleotide cap analog. The reaction mixture was incubated at 37° C. for 5 min before the addition of SP6 RNA polymerase (Fermentas) to a final concentration of 2 U/μl. After 30 min of incubation at 37° C., GTP was added to a final concentration of 1 mM, and the reaction continued for an additional 90 min. The reaction mixtures were then treated with 1 U of DNase RQ1 (RNAse-free, Promega) per μg of template DNA in transcription buffer at 37° C. for 20 min. RNA transcripts were purified on DEPC-treated Sephadex G-50 spin columns (Pharmacia). The integrity of transcripts was confirmed by electrophoresis on a non-denaturating, 1% agarose gel. Concentrations were determined spectrophotometrically. The transcripts were stored at −80° C. until used.
A micrococcal nuclease-treated rabbit reticulocyte lysate system (Flexi Rabbit Reticulocyte Lysate System, Promega) was used for in vitro translation. Translation reactions were performed in 10 μl for 60 min at 30° C. A typical reaction mixture contained 40% reticulocyte lysate, the 20 “standard” amino acids (0.01 mM each), MgCl2 (1.2 mM), potassium acetate (170 mM), and mRNA (five different concentrations of each transcript, ranging from 0.25 to 4 μg/ml). Luciferase activity was measured in a luminometer (Glomax, Promega). Linear regression was used to fit the data points (luciferase activity versus concentration of mRNA transcript), and translational efficiency was defined as the slope of this line. The relative translational efficiencies of the test mRNAs were compared to that of m^7GpppG-capped luciferase mRNA, the latter being defined as 1.0.

[4] = Table 3, cap analog added together with mRNA, read-out: Inhibition of in vitro translation (IC50), condition A
[5] = Table 3, cap analog preincubated 60 min in lysate, read-out: Inhibition of in vitro translation (IC50), condition B
[6] = cap analog added together with luciferase mRNA, read-out: Inhibition of in vitro translation (IC50), condition A
[7] = cap analog incubated in translation system 60 min before addition of mRNA, read-out: Inhibition of in vitro translation (IC50), condition B

Compound	Stability in aqueous solution [1]	IC50 [2, 4] [µM]	IC50 [2, 5] [µM]	Translation efficiency in comparison with m^7GpppG-LUC mRNA, Experiment No. 1 ([3]; experiment 1)	Translation efficiency in comparison with m^7GpppG-LUC mRNA, Experiment No. 2 [3]	Translation efficiency in comparison with m^7GpppG-LUC mRNA, Experiment No. 3 [3]	Translation efficiency in comparison with m^7GpppG-LUC mRNA, Experiment No. 4 [3]	Translation efficiency in comparison with m^7GpppG-LUC mRNA, Mean [3]	In vitro translational efficiency, method I [3]	IC50 [2, 6] [µM]	IC50 [2, 7] [µM]
CO[C@@H]1[C@H](O)[C@@H](COP(=O)(O)OP(O)(=[Se])OP(=O)(O)OC[C@H]2O[C@@H](n3cnc4c(=O)[nH]c(N)nc43)[C@H](O)[C@@H]2O)O[C@H]1n1c[n+](C)c2c(=O)[nH]c(N)nc21 (single isomer, unassigned) [m2^7,2′-OGppSepG (D1), m2^7,2′-OGppSepG]	stable in aqueous solution	8.4 ± 1.4	14.7 ± 1.6	–	–	–	–	–	–	–	–
CO[C@@H]1[C@H](O)[C@@H](COP(=O)(O)OP(O)(=[Se])OP(=O)(O)OC[C@H]2O[C@@H](n3cnc4c(=O)[nH]c(N)nc43)[C@H](O)[C@@H]2O)O[C@H]1n1c[n+](C)c2c(=O)[nH]c(N)nc21 (single isomer, unassigned) [m2^7,2′-OGppSepG (D2), m2^7,2′-OGppSepG]	stable in aqueous solution	3.9 ± 0.5	11.4 ± 7.2	–	–	–	–	–	–	–	–
Cn1c[n+]([C@@H]2O[C@H](COP(=O)(O)OP(=O)(O)OP(=O)(O)OC[C@H]3O[C@@H](n4cnc5c(=O)[nH]c(N)nc54)[C@H](O)[C@@H]3O)[C@@H](O)[C@H]2O)c2nc(N)[nH]c(=O)c21 [m^7GpppG, m^7G(5′)ppp(5′)G, reference compound]	–	8.3 ± 0.2	35.1 ± 10.8	1.00	1.00	1.00	1.00	1.00	1.00	8.3 ± 0.2	35.1 ± 10.8
m^7GppBH3pm^7G	–	–	–	–	2.63	2.91	2.89	2.81	2.81 ± 0.16	3 ± 0.1	3 ± 0.2

Reference: US8519110B2, “mRNA cap analogs” (Board of Supervisors of Louisiana State University And …, priority 2008, dated 2013)
